Reference: patent US8143250B2, “6-7,dialkoxy quinazoline derivatives useful for treatment of cancer related disorders” (priority 2008, dated 2012)
Entries after “also recorded” stand apart in the source; their conditions may differ. Structures can show the parent of a compound that is named as a salt. Where two headings read alike, the source gives them in different places.

Columns and labels:
male and female mice = test: Acute toxicity (LD0, LD50) in mice; format: in vivo; details: single oral dose; for LD50: Litchfield and Wilcoxon; for LD0: no mortality at end of 7 days
Procedure: The doses 500, 750, 1000 and 2000 mg/Kg were administered orally. Each group consists of 5 mice. […] The survived animals were autopsied for asserting the absorption of compound through g.i.t.
The LD50 was determined using Litchfield and Wilcoxon (J. Pharmacol. Exp. Ther. 1949, 96: 99-113).

A549 cells [1] = test: In vivo evaluation on subcutaneous lung tumours in nude mice; details: for tumour regression: subcutaneous A549 tumours
Text: Nude mice were implanted with 2×10^6 A549 cells in the right hind limb flank.

[2] = test system: A549 luciferase expressing cells; test: Evaluation of lung tissue harvested from nude mice after treatment; format: in vivo; details: various concentrations, oral/ip routes
[3] = test system: A549 luciferase expressing cells; test: Nude mice implanted with A549 luciferase expressing cells, tumor observation; format: in vivo; details: 42 days treatment, oral and ip routes
A549 cells [4] = test: Evaluation of ED50 from lung section and tumor regression studies; format: in vivo, nude mice; details: oral route, based on lung section and tumor regression studies
Procedure: The ED50 values were evaluated based on the lung section and tumor regression studies. […].

Erb B2 = test: Western blot of receptor levels in A549 cells: Erb B2; format: cell-based, human
Procedure: (§1) Levels of Erb-1, Erb-2, Erb-3, Erb-4 and VEGFR were determined by western blot analysis.

Erb B3 = test: Western blot of receptor levels in A549 cells: Erb B3; format: cell-based, human
Procedure: as §1

Erb B4 = test: Western blot of receptor levels in A549 cells: Erb B4; format: cell-based, human
Procedure: as §1

VEGFR = test: Western blot of receptor levels in A549 cells: VEGFR; format: cell-based, human
Procedure: as §1

A549 and H1299 cells = test: cells; details: Homo sapiens, read-out: inhibiting concentration (IC50)
Procedure: Solubilization of the cells by the addition of a detergent results in the liberation of the crystals, which are solubilized. The number of surviving cells is directly proportional to the level of the formazan product created. The color can then be quantified using a simple colorimetric assay. This assay was done using 0-1000 ng/ml concentrations of Erlotinib and the test compounds in A549 and H1299 cells.

EGFR = target: T1, EGFR (Homo sapiens, UniProt P00533); test: Western blot analysis of EGFR expression; format: cell-based; details: for concentration causing comparable inhibition of EGFR expression: H1299 or A549 cells, 72 hr
T1 construct: endogenous in cells; host or cells: H1299 or A549 cells
Text: The gels were blotted onto treated nylon membranes (Biorad) and immunoprobed for EGFR, P13K and AKT.

H1299 and A549 cells = test: Matrigel invasion assay (modified Boyden chamber); format: cell-based, human; details: cells treated 48 hr, migration 24 h
Procedure: The in vitro invasiveness of H1299 and A549 cells in the presence of various concentrations of NRC compounds (as determined by MTT assay) was assessed using a modified Boyden chamber assay. Cells were treated with these compounds for 48 hr. 1×10^6 cells were suspended in 600 μl of serum-free medium supplemented with 0.2% BSA and placed in the upper compartment of the transwell chambers (Corning Costar Fisher Scientific cat #07-200-158, Pittsburgh Pa.) coated with matrigel (0.7 mg/ml). The lower compartment of the chamber was filled with 200 μl of serum medium and the cells were allowed to migrate for 24 h. after incubation, the cells were fixed and stained with Hema-3 and quantified as previously described (Mohanam et al. 1993). The migrated cells were quantified as percent invasion.

A549 cells [5] = test: Visualization of tumors in lung tissue (H&E sections); format: in vivo, nude mice; details: intrapulmonary A549, 2.5 and 20 mg/Kg, oral/ip, thirty days daily treatment
Text: Nude mice were implanted by intrapulmonary injections of A549 cells. […] Thirty days after daily drug treatments, mice were sacrificed and lungs harvested. The lung tissues were fixed in 10% buffered formaldehyde, paraffin embedded and sectioned. The sections were H&E stained as per statutory protocols to visualize solid or diffuse tumors.

Row | Structure (SMILES) | LD50 (male and female mice) | LD0 (male and female mice) | residual tumours in harvested lungs [2] | tumors at end of treatment [3] | Erb B2 level (Erb B2) | Erb B3 level (Erb B3) | Erb B4 level (Erb B4) | VEGFR level (VEGFR) | other results
1 | C#Cc1cccc(Nc2ncnc3cc(OCCOC)c(OCCOC)cc23)c1 [Erlotinib HCl, N-(3-Ethylnylphenyl)-6,7-bis(2-methoxyethoxy)-4-quinazolinamine, reference compound] | 805 mg/kg (po) | 500 mg/kg (po) | tumours were still present | residual tumors were still present | not seen at all; also recorded: no such indication was seen | not seen at all; also recorded: no such indication was seen | not seen at all; also recorded: no such indication was seen | not seen at all; also recorded: no such indication was seen | tumour regression (A549 cells [1]; 100 mg/Kg dose): could not induce complete tumor regression; also recorded: tumours were still present; ED50 (A549 cells [4]; Mus musculus, A549, read-out: ED50): 22 mg/kg; IC50 (A549 and H1299 cells): 0.836 µg/mL
2 | C#Cc1cccc(Nc2ncnc3cc(OC)c(OCCCN4CCOCC4)cc23)c1 [NRC-2694, N-(3-ethylnylphenyl)-7-methoxy-6-[3-(4-morpholinyl)propoxy]-4-quinazolinamine] | could not be pinpointed | 2000 mg/kg (po) | Complete regression of tumours | No tumors were observed | down regulating | down regulating | down regulating | down regulating | level of efficacy versus erlotinib HCl (EGFR expression) (EGFR; 80 ng versus 800 ng): ten fold; concentration causing comparable inhibition of EGFR expression (EGFR): 80 ng; concentration causing comparable inhibition of EGFR expression (EGFR; value in parentheses): 190 nm; invasion (H1299 and A549 cells): significant decrease in invasion in a dose dependent manner; tumour regression (A549 cells [1]; 10 mg/Kg dose): complete regression of tumours; superiority in efficacy versus erlotinib HCl (A549 cells [1]; 10 mg/Kg versus 100 mg/Kg): ten fold; tumors in lung tissue sections, comparison with erlotinib HCl (A549 cells [5]): fared much better; ED50 (A549 cells [4]): 6.3 mg/kg; Erb B2 level (Erb B2; listed as NRC 2694): down regulated; Erb B3 level (Erb B3; listed as NRC 2694): down regulated; Erb B4 level (Erb B4; listed as NRC 2694): down regulated; VEGFR level (VEGFR; listed as NRC 2694): down regulated
